Results reported in ChEMBL document CHEMBL5291721, “A preclinical secondary pharmacology resource illuminates target-adverse drug reaction associations of marketed drugs” (Nat Commun, 2023).

Columns and labels:
[1] = molecular target: T1, Amine oxidase [flavin-containing] A (Homo sapiens, UniProt P21397); assay type: functional
T1 sequence (P21397 whole entry): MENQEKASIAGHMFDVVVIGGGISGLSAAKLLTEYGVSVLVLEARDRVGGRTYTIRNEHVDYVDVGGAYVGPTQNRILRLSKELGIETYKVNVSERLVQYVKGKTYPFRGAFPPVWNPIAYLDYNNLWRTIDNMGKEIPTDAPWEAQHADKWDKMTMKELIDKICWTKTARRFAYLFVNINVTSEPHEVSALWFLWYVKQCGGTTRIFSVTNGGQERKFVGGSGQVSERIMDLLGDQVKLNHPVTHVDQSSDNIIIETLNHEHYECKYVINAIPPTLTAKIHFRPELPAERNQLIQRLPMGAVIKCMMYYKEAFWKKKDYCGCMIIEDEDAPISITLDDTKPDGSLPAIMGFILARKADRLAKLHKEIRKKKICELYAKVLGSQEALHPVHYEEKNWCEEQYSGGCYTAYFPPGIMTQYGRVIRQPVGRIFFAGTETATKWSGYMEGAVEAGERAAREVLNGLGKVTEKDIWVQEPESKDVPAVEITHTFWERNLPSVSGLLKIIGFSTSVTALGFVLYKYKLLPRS

Estrogen receptor = molecular target: T2, Estrogen receptor (Homo sapiens, UniProt P03372)
T2 sequence (P03372 whole entry): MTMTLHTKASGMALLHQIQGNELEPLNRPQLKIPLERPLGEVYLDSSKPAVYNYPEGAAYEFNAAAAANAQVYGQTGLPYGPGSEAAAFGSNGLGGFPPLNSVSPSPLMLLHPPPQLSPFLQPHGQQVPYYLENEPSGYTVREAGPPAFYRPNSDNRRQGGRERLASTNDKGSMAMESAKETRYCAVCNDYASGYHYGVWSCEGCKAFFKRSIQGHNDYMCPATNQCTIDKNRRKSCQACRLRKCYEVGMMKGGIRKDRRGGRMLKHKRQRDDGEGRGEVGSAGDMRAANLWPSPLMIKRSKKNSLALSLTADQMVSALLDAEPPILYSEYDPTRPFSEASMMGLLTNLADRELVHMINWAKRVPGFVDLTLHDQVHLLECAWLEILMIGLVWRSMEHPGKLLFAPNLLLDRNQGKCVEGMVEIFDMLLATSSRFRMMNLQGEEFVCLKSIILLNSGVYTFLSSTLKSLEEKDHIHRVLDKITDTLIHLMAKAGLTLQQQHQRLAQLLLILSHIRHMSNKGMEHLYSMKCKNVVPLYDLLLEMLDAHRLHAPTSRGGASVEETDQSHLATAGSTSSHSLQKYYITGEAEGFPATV

[2] = molecular target: Gamma-aminobutyric acid receptor subunit alpha-1 (Rattus norvegicus, UniProt P62813)
Chain of Gamma-aminobutyric acid receptor subunit alpha-1 (P62813 whole entry): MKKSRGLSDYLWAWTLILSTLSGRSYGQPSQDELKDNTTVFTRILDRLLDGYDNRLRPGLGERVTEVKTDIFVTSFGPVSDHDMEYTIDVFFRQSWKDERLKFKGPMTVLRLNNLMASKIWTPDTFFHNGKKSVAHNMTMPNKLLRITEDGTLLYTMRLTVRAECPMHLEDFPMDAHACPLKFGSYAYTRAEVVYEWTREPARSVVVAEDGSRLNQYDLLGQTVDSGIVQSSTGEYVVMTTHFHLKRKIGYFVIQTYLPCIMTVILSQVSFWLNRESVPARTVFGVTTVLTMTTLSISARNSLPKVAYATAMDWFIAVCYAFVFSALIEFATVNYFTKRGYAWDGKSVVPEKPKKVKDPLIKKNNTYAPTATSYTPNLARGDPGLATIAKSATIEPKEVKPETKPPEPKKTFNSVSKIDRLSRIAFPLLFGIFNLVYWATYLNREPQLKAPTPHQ

[3] = molecular target: T3, Alpha-1A adrenergic receptor (Homo sapiens, UniProt P35348); assay type: functional, cell-based
T3 sequence (P35348 whole entry): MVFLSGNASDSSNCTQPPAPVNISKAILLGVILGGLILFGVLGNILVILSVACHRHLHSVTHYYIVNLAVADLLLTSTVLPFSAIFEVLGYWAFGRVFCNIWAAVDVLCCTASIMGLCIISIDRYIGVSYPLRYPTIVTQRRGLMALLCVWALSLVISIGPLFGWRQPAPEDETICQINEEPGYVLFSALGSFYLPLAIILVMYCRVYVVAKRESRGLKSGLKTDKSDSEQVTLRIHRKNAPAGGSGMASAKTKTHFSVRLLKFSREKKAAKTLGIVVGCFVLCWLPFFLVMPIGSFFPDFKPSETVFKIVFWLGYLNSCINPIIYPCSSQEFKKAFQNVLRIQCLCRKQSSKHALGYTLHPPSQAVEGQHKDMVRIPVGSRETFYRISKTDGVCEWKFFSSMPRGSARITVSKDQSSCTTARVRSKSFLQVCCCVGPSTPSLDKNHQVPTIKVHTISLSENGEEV

Histamine H2 receptor = Histamine H2 receptor (Homo sapiens, UniProt P25021); assay type: functional, cell-based
Chain of Histamine H2 receptor (P25021 whole entry): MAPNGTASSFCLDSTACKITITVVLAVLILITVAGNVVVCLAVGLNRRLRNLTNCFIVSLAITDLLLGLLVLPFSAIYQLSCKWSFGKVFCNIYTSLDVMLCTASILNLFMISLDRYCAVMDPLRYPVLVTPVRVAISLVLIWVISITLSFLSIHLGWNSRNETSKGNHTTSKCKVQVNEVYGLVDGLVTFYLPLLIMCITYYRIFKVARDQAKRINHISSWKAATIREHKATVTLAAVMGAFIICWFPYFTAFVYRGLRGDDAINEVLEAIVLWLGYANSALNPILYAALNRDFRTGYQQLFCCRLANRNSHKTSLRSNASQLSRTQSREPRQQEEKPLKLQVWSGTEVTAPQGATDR

Thromboxane A2 receptor = molecular target: T4, Thromboxane A2 receptor (Homo sapiens, UniProt P21731)
T4 sequence (P21731 whole entry): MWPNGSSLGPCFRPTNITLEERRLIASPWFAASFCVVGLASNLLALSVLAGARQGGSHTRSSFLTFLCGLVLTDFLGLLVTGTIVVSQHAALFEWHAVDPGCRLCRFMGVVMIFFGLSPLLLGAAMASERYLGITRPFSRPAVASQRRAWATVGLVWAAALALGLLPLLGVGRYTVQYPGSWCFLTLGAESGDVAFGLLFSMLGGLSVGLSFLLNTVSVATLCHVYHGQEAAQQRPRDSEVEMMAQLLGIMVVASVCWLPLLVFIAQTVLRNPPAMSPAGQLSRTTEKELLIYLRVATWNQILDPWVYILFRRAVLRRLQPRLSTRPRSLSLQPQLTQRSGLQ

Endothelin-1 receptor = molecular target: T5, Endothelin-1 receptor (Homo sapiens, UniProt P25101)
T5 sequence (P25101 whole entry): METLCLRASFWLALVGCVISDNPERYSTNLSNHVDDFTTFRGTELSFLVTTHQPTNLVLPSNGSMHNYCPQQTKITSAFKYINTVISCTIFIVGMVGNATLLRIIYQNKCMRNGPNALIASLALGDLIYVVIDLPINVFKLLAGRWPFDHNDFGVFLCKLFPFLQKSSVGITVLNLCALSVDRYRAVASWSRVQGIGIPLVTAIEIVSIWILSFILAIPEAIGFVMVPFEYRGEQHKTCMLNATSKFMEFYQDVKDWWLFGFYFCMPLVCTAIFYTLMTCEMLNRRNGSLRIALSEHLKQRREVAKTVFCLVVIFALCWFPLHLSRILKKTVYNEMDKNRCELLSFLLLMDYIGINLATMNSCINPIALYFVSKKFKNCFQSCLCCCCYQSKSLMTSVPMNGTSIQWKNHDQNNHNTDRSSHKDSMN
Note: assay procedure not described here.

| Structure (SMILES) | AC50 [1] | AC50 (Estrogen receptor) | AC50 [2] | AC50 [3] | AC50 (Histamine H2 receptor) | AC50 (Thromboxane A2 receptor) | AC50 (Endothelin-1 receptor) |
| --- | --- | --- | --- | --- | --- | --- | --- |
| OC[C@H]1NC[C@H](O)[C@@H](O)[C@H]1O | > 30 µM | > 30 µM |  |  |  |  |  |
| O=C(O)[C@@H](S)[C@@H](S)C(=O)O | > 30 µM |  |  |  |  |  |  |
| CC#CC(=O)N1CCC[C@H]1c1nc(-c2ccc(C(=O)Nc3ccccn3)cc2)c2c(N)nccn12 [ACALABRUTINIB] | > 30 µM | > 30 µM |  |  |  |  |  |
| O=C(O)COC(=O)Cc1ccccc1Nc1c(Cl)cccc1Cl [ACECLOFENAC] |  |  | > 10 µM | > 30 µM | > 10 µM | 2.54 µM |  |
| C=CCOc1ccc(CC(=O)O)cc1Cl [ALCLOFENAC] | > 30 µM | > 30 µM |  |  |  |  |  |
| CC[N+](CC)(CCNC(=O)C(=O)NCC[N+](CC)(CC)Cc1ccccc1Cl)Cc1ccccc1Cl [AMBENONIUM] |  |  | > 30 µM |  | > 30 µM | > 30 µM | > 30 µM |
| NCCCCCC(=O)O [AMINOCAPROIC ACID] |  |  | > 10 µM |  | > 10 µM | > 10 µM |  |
| CC(C)NCC(O)COc1ccc(CC(N)=O)cc1 (centres undefined) [ATENOLOL] |  |  |  | > 30 µM | > 30 µM | > 30 µM |  |
| CC(C)C[C@H](NC(=O)[C@H](Cc1ccccc1)NC(=O)c1cnccn1)B(O)O [BORTEZOMIB] |  |  | > 30 µM |  | > 30 µM | > 30 µM |  |
| NC(=O)C1(N2CCCCC2)CCN(CCCN2c3ccccc3CCc3ccccc32)CC1 [CARPIPRAMINE] | > 30 µM | > 30 µM |  |  |  |  |  |
| CN1CCN(C(c2ccccc2)c2ccc(Cl)cc2)CC1 (centres undefined) [CHLORCYCLIZINE] | > 30 µM | > 30 µM |  |  |  |  |  |
| CCCCCCCCCCCCCCCC(=O)OC[C@H](COP(=O)([O-])OCC[N+](C)(C)C)OC(=O)CCCCCCCCCCCCCCC [COLFOSCERIL PALMITATE] | > 30 µM | > 30 µM |  |  |  |  |  |
| O=P1(N(CCCl)CCCl)NCCCO1 (centres undefined) [CYCLOPHOSPHAMIDE ANHYDROUS] | > 30 µM | > 30 µM |  |  |  |  |  |
| CC(C)Nc1cccnc1N1CCN(C(=O)c2cc3cc(NS(C)(=O)=O)ccc3[nH]2)CC1 [DELAVIRDINE] | 24 µM | > 30 µM |  |  |  |  |  |
| C[C@@H](CN1CC(=O)NC(=O)C1)N1CC(=O)NC(=O)C1 [DEXRAZOXANE] | > 30 µM | > 30 µM |  |  |  |  |  |
| COC(=O)CCc1ccc(OCC(O)CNC(C)C)cc1 (centres undefined) [ESMOLOL] |  |  | > 30 µM | > 30 µM | > 30 µM | > 30 µM | > 30 µM |
| O=c1[nH]cc(F)c(=O)[nH]1 [FLUOROURACIL] | > 30 µM |  |  |  |  |  | > 30 µM |
| O=C(O)[C@H](O)[C@@H](O)[C@H](O)[C@H](O)CO [GLUCONIC ACID] | > 30 µM |  |  |  |  |  |  |
| CCN(CCO)CCCC(C)Nc1ccnc2cc(Cl)ccc12 (centres undefined) [HYDROXYCHLOROQUINE] |  |  | > 10 µM |  | > 10 µM | > 10 µM |  |
| O=C(c1ccccc1)c1ccc2n1CCC2C(=O)O (centres undefined) [KETOROLAC] |  |  | > 30 µM | > 30 µM | > 30 µM | > 10 µM |  |
| O=NN(CCCl)C(=O)NC1CCCCC1 [LOMUSTINE] | > 30 µM |  |  |  |  |  |  |
| CNC1(C)C2CCC(C2)C1(C)C (centres undefined) [MECAMYLAMINE] |  |  |  |  | > 10 µM | > 10 µM |  |
| CC1=C(C/C=C(\C)CCC[C@H](C)CCC[C@H](C)CCCC(C)C)C(=O)c2ccccc2C1=O [PHYTONADIONE] | > 30 µM |  |  |  |  |  |  |
| CCC1(c2ccccc2)C(=O)NCNC1=O [PRIMIDONE] |  |  |  |  | > 10 µM | > 10 µM |  |
| CC(=O)SCC(Cc1ccccc1)C(=O)NCC(=O)OCc1ccccc1 (centres undefined) [RACECADOTRIL] |  |  | > 30 µM |  | > 30 µM | > 30 µM | > 30 µM |
| CCOc1ccccc1OCCN[C@H](C)Cc1ccc(OC)c(S(N)(=O)=O)c1 [TAMSULOSIN] |  |  | > 10 µM |  | > 10 µM | > 30 µM |  |
| C[C@H](Cn1cnc2c(N)ncnc21)OCP(=O)(O)O [TENOFOVIR ANHYDROUS] |  |  | > 30 µM | > 30 µM | > 30 µM | > 30 µM |  |
| Cc1cccc(C)c1NC(=O)c1cc(S(N)(=O)=O)c(Cl)cc1O [XIPAMIDE] | > 30 µM |  |  |  |  |  |  |
